Source: US20230151069A1, “Cyclic Peptides” (LIFEARC, priority 2020, published 2023)

How the values were obtained:
Tg4-42 mice [1] = assay: Quantification of CA1 neuron numbers by unbiased stereology in Tg4-42 mice; type: in vivo, mouse; settings: aged Tg4-42 mice
Description: (§1) Tg4-42 mice were immunized at 6 weeks of age for 12 weeks with antigen [Thioacetal bridged Abeta peptide 1-14—KLH conjugate; DAC*[…]*HH[Cys]-amide (*S—CH—S bridged)] emulsified in complete Freund's adjuvant (CFA), followed by booster doses of protein emulsified in incomplete Freund's adjuvant (IFA). Booster injections of antigen emulsified in IFA was administered at day 14, day 28, day 42, thereafter monthly (3 times after month 4, 5 and 6), after immunization with antigen/CFA emulsion. Mice were acclimated at our facility for at least 7 days before immunization. […]
Stereological analysis was performed as previously described (G. Antonios et al., Alzheimer therapy with an antibody against N-terminal Abeta 4-X and pyroglutamate Abeta 3-X. Scientific reports 5, 17338 (2015)). The hippocampal cell layer CA1 (Bregma −1.22 to −3.52 mm) was delineated on cresyl violet-stained sections and analysed with a stereology workstation (Olympus BX51 with a motorized specimen stage for automatic sampling), StereoInvestigator 7 (MicroBrightField, Williston, USA) and a 100x oil lens (NA=1.35).
(§2) The treatment effect of active immunization was assessed in 6.5 month old Tg4-42 mice on hippocampus-dependent learning and memory by the Morris water maze test (FIG. 31A) and by counting the total number of CA1 neurons in the hippocampus (FIG. 31B). […]

Tg4-42 mice [2] = assay: Spatial reference memory by Morris water maze in Tg4-42 mice; type: in vivo, mouse; settings: aged Tg4-42 mice, FIG. 31A
Description: as §1, with “immunization. Mice were injected with antigen emulsified in CFA or IFA subcutaneously at two sites on the back, injecting 0.05 to 0.1 mL at each site (total of 0.1 to 0.2 mL per mouse).” for “immunization.”
Spatial reference memory in mice was evaluated using the Morris water maze (R. Morris, Developments of a water-maze procedure for studying spatial learning in the rat. J. Neurosci. Methods 11, 47-60 (1984)) as described previously (Y. Bouter et al., N-truncated amyloid beta (Abeta) 4-42 forms stable aggregates and induces acute and long-lasting behavioral deficits. Acta Neuropathol 126, 189-205 (2013)).
as §2

5XFAD mice = assay: Active immunisation, in vivo glucose metabolism by 18F-FDG-PET/MRI in 5XFAD mice; set-up: species or system mouse; settings: immunized 5XFAD mice, FIG. 30
Description: 18F-FDG-PET/MRI was performed on 5xFAD mice as well as age matched C57Bl/6J wild type mice. Mice were fasted overnight and blood glucose levels were measured before tracer injection. 11.46 to 20.53 MBq (mean 16.81 MBq) 18F-FDG was injected intravenously into a tail vein with a maximum volume of 200 μl followed by an uptake period of 45 minutes. Mice were awake during the uptake process. PET scans were performed for 20 minutes using a small animal 1 Tesla nanoScan PET/MRI (Mediso, Hungary). Mice were anesthetized with isoflurane supplemented with oxygen during the scans and kept on a heated bed (37° C.). Respiratory rate was measured throughout the imaging process. […]
All images were analyzed using PMOD v3.9 (PMOD Technologies, Switzerland) as described before (Bouter et al). […] PET VOI statistics (kBq/cc) were generated for all brain areas and standardized uptake values (SUVs) were calculated [SUV=tissue activity concentration average (kBq/cc)×body weight (g)/injected dose (kBq)] for semi-quantitative analysis. SUVs of 18F-FDG-PET scans were corrected for measured blood glucose levels [SUVGIc=SUV x blood glucose level (mg/dl)]. […]
In vivo glucose metabolism on Alzheimer mice (5XFAD) as well as age matched C57Bl/6J wild type mice was analysed by 18F-FDG-PET/MRI imaging as described above.

Substance: DAC*FRHDSGYEC*HH[Cys]-amide (*S—CH—S bridged, cyclised via positions 3 and 12)
- loss / number of CA1 neurons (in words) (Tg4-42 mice [1]; FIG. 31B): significantly reduced loss of neurons
- mean number (+SEM) of neurons in CA1 layer of hippocampus (Tg4-42 mice [1]; IgG1 treated control 128687+13035): 185858+39180
- learning and memory deficits, Morris water maze probe trial (Tg4-42 mice [2]; listed as 3-12 linked A61-14 cyclic peptide): substantial rescue of learning and memory deficits
- learning and memory deficits, Morris water maze probe trial (Tg4-42 mice [2]; listed as cylised Aβ peptide): rescued memory deficits
- brain glucose metabolism (18F-FDG uptake) (5XFAD mice): significant rescue
